Data: patent publication US9867795B2, “Nitrated lipids and methods of making and using thereof” (The UAB Research Foundation, priority 2004, dated 2018)

Legend:
[1] = pH dependency of •NO formation from LNO2 (EPR, cPTIO reduction); conditions: 80 μM LNO2, buffers with different pHs
Description: Electron paramagnetic resonance—EPR measurements were performed at room temperature using a Bruker Elexsys E-500 spectrometer equipped with an ER049X microwave bridge and an AquaX liquid sample cell. The following instrument setting were used: modulation frequency, 100 kHz; modulation amplitude, 0.05 G; receiver gain, 60 dB; time constant, 1.28 ms; sweep time, 5.24 s; center field, 3510 G; sweep width, 100 G; power, 20 mW; scan parameter, 16 scans.
Due to limitations of the •NO-cPTIO reaction for quantitating yields of NO, oxymyoglobin was utilized to measure •NO release rates (24).

[2] = tested on: human vascular endothelial cells and macrophages; experiment: Whole Human Genome Oligo Array gene expression; assay type: cell-based; design: CCNE1 down-regulated / CAMK1 down-regulated / TCF4 down-regulated / PPARGC1B down-regulated / RB1 down-regulated / TNF down-regulated / TYK2 down-regulated / STAT1 down-regulated / CAV3 down-regulated / EDARADD down-regulated / DAPK2 down-regulated / CASP8AP2 down-regulated / ITR down-regulated / RAC2 down-regulated / CDC2 down-regulated / CDC42 down-regulated / CCND3 down-regulated / PLAU down-regulated / EGR2 down-regulated / ADRB2 down-regulated / VASP down-regulated / FDPS down-regulated / IL11 down-regulated / AIF1 down-regulated / TGFB1 down-regulated / PIK3CB down-regulated / PTGS1 down-regulated / IRS1 down-regulated / TIMP2 down-regulated / PTGES2 down-regulated / PDGFRA down-regulated / TLR2 down-regulated / E2F2 down-regulated / RACGAP1 down-regulated / LDLR down-regulated / NCOR2 down-regulated / NCR1 down-regulated / CARD9 down-regulated / SRF down-regulated / PDGFA down-regulated / FLJ23091 down-regulated / BCL2A1 down-regulated / TIMP1 down-regulated / PDGFC down-regulated / TIMP3 down-regulated / ARHGEF1 down-regulated / FN1 down-regulated / MMP19 down-regulated / JUNB down-regulated / PPARD down-regulated / MYLK down-regulated / TGFBI down-regulated / ILK down-regulated / MAPKAPK3 down-regulated / ROCK1 down-regulated / IGF1 down-regulated / VEGFB down-regulated / ECGF1 down-regulated / GADD45A up-regulated / CASP1 up-regulated / CASP4 up-regulated / CCNA1 up-regulated / JUN up-regulated / CASP3 up-regulated / GADD45B up-regulated / AATK up-regulated / AMID up-regulated / IL10RA up-regulated / GADD45G up-regulated / IRS2 up-regulated / HO-1, heme oxygenase-1 up-regulated: dose or concentration left out as unconfirmed; conditions: 24 hours
Description: The nitroalkenes of the present invention also display regulatory actions towards the expression of genes related to inflammatory responses, cell growth, cell differentiation, cell signaling, cell death (apoptosis) and metabolism. For example, nitrolinoleate regulates gene expression in human vascular endothelial cells and macrophages. Cells were stimulated with vehicle and linoleic acid (2.5 μM, the latter two treatments as controls) and LNO2O ([…]) for 24 hours. The total RNA was purified with a Qiagen Kit and analyzed with a Whole Human Genome Oligo Array (G4112A, 41K Genes, Agilent). […] In contrast, the native (precursor) fatty acid, linoleic acid, only regulates 14 genes, with an up-regulation of 5 genes and the down-regulation of 9 genes.

[3] = LNO2O 2.5 mM, linoleic acid 2.5 μM

## 10-nitro-9,12-octadecadienoic acid and 12-nitro-9,12-octadecadienoic acid [LNO2]
[1]
  pH of maximal •NO release: 7.4
[2]
  AATK up-regulated: 1.503
  AMID up-regulated: 8.362
  CASP1 up-regulated: 2.572
  CASP3 up-regulated: 1.689
  CASP4 up-regulated: 2.57
  CCNA1 up-regulated: 2.558
  GADD45A up-regulated: 2.823
  GADD45B up-regulated: 1.674
  GADD45G up-regulated: 3.155
  HO-1, heme oxygenase-1 up-regulated: 4.086
  IL10RA up-regulated: 3.173
  IRS2 up-regulated: 3.243
  JUN up-regulated: 2.454
[2]; [3]
  number of genes down-regulated: > 3000 genes
  number of genes regulated: > 5000 genes
  number of genes up-regulated: > 2300 genes
[2]; p < 0.05
  ADRB2 down-regulated: 2.04 fold
  AIF1 down-regulated: 3.95 fold
  ARHGEF1 down-regulated: 1.64 fold
  BCL2A1 down-regulated: 3.50 fold
  CAMK1 down-regulated: 2.24 fold
  CARD9 down-regulated: 3.33 fold
  CASP8AP2 down-regulated: 1.52 fold
  CAV3 down-regulated: 1.76 fold
  CCND3 down-regulated: 1.51 fold
  CCNE1 down-regulated: 1.58 fold
  CDC2 down-regulated: 2.75 fold
  CDC42 down-regulated: 1.65 fold
  DAPK2 down-regulated: 1.73 fold
  E2F2 down-regulated: 3.70 fold
  ECGF1 down-regulated: 1.73 fold
  EDARADD down-regulated: 1.69 fold
  EGR2 down-regulated: 2.65 fold
  FDPS down-regulated: 2.46 fold
  FLJ23091 down-regulated: 1.74 fold
  FN1 down-regulated: 3.33 fold
  IGF1 down-regulated: 1.54 fold
  IL11 down-regulated: 2.02 fold
  ILK down-regulated: 2.94 fold
  IRS1 down-regulated: 2.40 fold
  ITR down-regulated: 1.68 fold
  JUNB down-regulated: 1.60 fold
  LDLR down-regulated: 1.77 fold
  MAPKAPK3 down-regulated: 2.18 fold
  MMP19 down-regulated: 1.58 fold
  MYLK down-regulated: 3.13 fold
  NCOR2 down-regulated: 1.59 fold
  NCR1 down-regulated: 2.30 fold
  PDGFA down-regulated: 2.27 fold
  PDGFC down-regulated: 1.72 fold
  PDGFRA down-regulated: 2.36 fold
  PIK3CB down-regulated: 1.93 fold
  PLAU down-regulated: 7.58 fold
  PPARD down-regulated: 3.12 fold
  PPARGC1B down-regulated: 2.20 fold
  PTGES2 down-regulated: 1.59 fold
  PTGS1 down-regulated: 3.95 fold
  RAC2 down-regulated: 2.47 fold
  RACGAP1 down-regulated: 2.35 fold
  RB1 down-regulated: 2.06 fold
  ROCK1 down-regulated: 1.59 fold
  SRF down-regulated: 1.56 fold
  STAT1 down-regulated: 1.74 fold
  TCF4 down-regulated: 2.63 fold
  TGFB1 down-regulated: 2.46 fold
  TGFBI down-regulated: 9.80 fold
  TIMP1 down-regulated: 3.62 fold
  TIMP2 down-regulated: 1.92 fold
  TIMP3 down-regulated: 2.27 fold
  TLR2 down-regulated: 1.89 fold
  TNF down-regulated: 2.01 fold
  TYK2 down-regulated: 2.00 fold
  VASP down-regulated: 4.85 fold
  VEGFB down-regulated: 1.51 fold
